Data from US10981926B2 (Janssen Pharmaceutica NV, priority 2016, dated 2021).

How the values were obtained:
rGABA-gated Cl− channel = experiment: GABA-Gated Cl Channel Antagonist Radioligand Binding Assay; design: species or system rat; settings: 10 μM single point, [35S]-TBPS, cerebral cortex membrane homogenates
Protocol: GABA-gated C1 Chanel assays were performed at CEREP according to the following method. Membrane homogenates of cerebral cortex (120 μg protein) were incubated for 120 min at 22° C. with 3 nM […] in the absence or presence of the test compound in a buffer containing 50 mM Na2HPO4/KH2PO4 (pH 7.4) and 500 mM NaCl. Nonspecific binding was determined in the presence of 20 μM picrotoxinin. Following incubation, the samples were filtered rapidly under vacuum through glass fiber filters (GF/B, Packard) presoaked with 0.3% PEI and rinsed several times with ice-cold 50 mM Tris-HCl using a 96-sample cell harvester (Unifilter, Packard). The filters were dried then counted for radioactivity in a scintillation counter (Topcount, Packard) using a scintillation cocktail (Microscint 0, Packard). The results are expressed as a percent inhibition of the control radio ligand specific binding. The standard reference compound is picrotoxinin, which was tested in each experiment at several concentrations to obtain a competition curve from which its IC50 was calculated. In this assay, the following representative compounds disclosed herein had recorded activities at a 10 μM single point concentration in the GABA-gated Cl— Channel Binding Assay.

[1] = biological target: T1, wild-type Androgen Receptor (AR-wt) (Homo sapiens (Human), UniProt P10275); experiment: LNCaP-AR-wt AG reporter assay (agonist mode); assay type: cell-based; settings: for EC50 / LNCaP-AR-wt AG pEC50: agonist mode, pEC50 = −Log10(EC50 in Molar); for EC50: read-out: LNCaP-AR-wt AG pEC50 (converted); for Emax: read-out: LNCaP-AR-wt AG MAX % Stim
[2] = biological target: T1, wild-type Androgen Receptor (AR-wt); experiment: LNCaP-AR-wt ANT reporter assay (antagonist mode); assay type: cell-based; settings: for IC50: read-out: LNCaP-AR-wt ANT pIC50 (converted); for Emax: read-out: LNCaP-AR-wt ANT MAX % Inh
[3] = biological target: T2, F876L mutant Androgen Receptor (AR-F876L) (Homo sapiens (Human), UniProt P10275, F877L); experiment: LNCaP-AR-F876L AG reporter assay (agonist mode); assay type: cell-based; settings: for EC50 / LNCaP-AR-F876L AG pEC50: agonist mode, pEC50 = −Log10(EC50 in Molar); for EC50: read-out: LNCaP-AR-F876L AG pEC50 (converted); for Emax: read-out: LNCaP-AR-F876L AG MAX % Stim
[4] = biological target: T2, F876L mutant Androgen Receptor (AR-F876L); experiment: LNCaP-AR-F876L ANT reporter assay (antagonist mode); assay type: cell-based; settings: for IC50: read-out: LNCaP-AR-F876L ANT pIC50 (converted); for Emax: read-out: LNCaP-AR-F876L ANT MAX % Inh
[5] = maximum % stimulation (agonist response) over the tested concentration range
[6] = antagonist mode, pIC50 = −Log10(IC50 in Molar)
[7] = maximum % inhibition of R1881 control response over the tested concentration range

T1 sequence (P10275 whole entry): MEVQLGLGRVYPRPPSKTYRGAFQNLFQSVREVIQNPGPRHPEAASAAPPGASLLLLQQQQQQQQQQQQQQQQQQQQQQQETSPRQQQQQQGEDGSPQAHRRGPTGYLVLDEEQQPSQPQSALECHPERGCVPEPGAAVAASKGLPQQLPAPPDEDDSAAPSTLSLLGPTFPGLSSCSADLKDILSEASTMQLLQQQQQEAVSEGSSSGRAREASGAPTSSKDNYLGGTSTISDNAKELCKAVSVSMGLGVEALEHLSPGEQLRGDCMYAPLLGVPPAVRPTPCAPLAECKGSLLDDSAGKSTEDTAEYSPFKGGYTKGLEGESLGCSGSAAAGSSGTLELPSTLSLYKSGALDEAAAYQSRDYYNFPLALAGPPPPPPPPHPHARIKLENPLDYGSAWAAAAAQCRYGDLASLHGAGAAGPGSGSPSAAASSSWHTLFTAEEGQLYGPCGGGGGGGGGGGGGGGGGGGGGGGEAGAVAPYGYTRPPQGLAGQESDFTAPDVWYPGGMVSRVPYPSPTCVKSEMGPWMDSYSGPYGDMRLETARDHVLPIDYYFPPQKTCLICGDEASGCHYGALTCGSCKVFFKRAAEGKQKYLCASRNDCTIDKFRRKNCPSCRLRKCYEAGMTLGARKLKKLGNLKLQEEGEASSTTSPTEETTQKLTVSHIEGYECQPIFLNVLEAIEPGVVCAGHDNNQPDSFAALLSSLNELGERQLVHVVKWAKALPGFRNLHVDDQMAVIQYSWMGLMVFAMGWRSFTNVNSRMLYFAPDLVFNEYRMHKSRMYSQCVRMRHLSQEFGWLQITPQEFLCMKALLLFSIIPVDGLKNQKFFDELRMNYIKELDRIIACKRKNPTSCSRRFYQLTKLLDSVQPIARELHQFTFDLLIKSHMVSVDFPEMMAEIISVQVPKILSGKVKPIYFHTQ
T2 sequence (P10275 whole entry F877L): as the sequence (P10275 whole entry) above, with F877L counted along it

rGABA-gated Cl− channel % inh @10 μM (rGABA-gated Cl− channel) [%]	EC50 [1] [µM]	Emax [1, 5] [%]	IC50 [2, 6] [µM]	Emax [2, 7] [%]	EC50 [3] [µM]	Emax [3, 5] [%]	IC50 [4, 6] [µM]	Emax [4, 7] [%]	LNCaP-AR-wt AG MAX % Stim [1, 5] [%]	LNCaP-AR-wt ANT MAX % Inh [2, 7] [%]	LNCaP-AR-F876L AG MAX % Stim [3, 5] [%]	LNCaP-AR-F876L ANT MAX % Inh [4, 7] [%]	SMILES	LNCaP-AR-wt AG pEC50 [1]	LNCaP-AR-wt ANT pIC50 [2, 6]	LNCaP-AR-F876L AG pEC50 [3]	LNCaP-AR-F876L ANT pIC50 [4, 6]
53.6	–	–	0.708	–	–	–	0.0912	–	0.3	99.7	0.3	100.6	N#Cc1ncc(N2C(=O)C3(CCC3)N(c3ccc(OC4CCCNCC4)cc3)C2=S)cc1C(F)(F)F (stereo not drawn) [Cpd 30, 5-[8-[4-(azepan-4-yloxy)phenyl]-5-oxo-7-thioxo-6,8-diazaspiro[3.4]octan-6-yl]-3-(trifluoromethyl)pyridine-2-carbonitrile]	<4.82	–	<4.82	–
96.2	> 15.1	-0.2	0.759	100	> 15.1	1	0.631	99.1	–	–	–	–	N#Cc1ncc(N2C(=O)C3(CCC3)N(c3ccc(OC4CCN(C5CC5)CC4)cc3)C2=S)cc1C(F)(F)F [Cpd 36, 5-[8-[4-[(1-cyclopropyl-4-piperidyl)oxy]phenyl]-5-oxo-7-thioxo-6,8-diazaspiro[3.4]octan-6-yl]-3-(trifluoromethyl)pyridine-2-carbonitrile]	–	–	–	–
69.2	> 15.1	0	0.708	101	> 15.1	0.3	0.324	99.9	–	–	–	–	COCCN1CCC(Oc2ccc(N3C(=S)N(c4cnc(C#N)c(C(F)(F)F)c4)C(=O)C34CCC4)cc2)CC1 [Cpd 38, 5-[8-[4-[[1-(2-methoxyethyl)-4-piperidyl]oxy]phenyl]-5-oxo-7-thioxo-6,8-diazaspiro[3.4]octan-6-yl]-3-(trifluoromethyl)pyridine-2-carbonitrile]	–	–	–	–
67.5	> 15.1	0.2	0.537	97.6	> 15.1	1.5	1	96	–	–	–	–	N#Cc1ncc(N2C(=O)C3(CCC3)N(c3ccc(OC4CCN(CC(F)(F)F)CC4)cc3)C2=S)cc1C(F)(F)F [Cpd 40, 5-[5-oxo-7-thioxo-8-[4-[[1-(2,2,2-trifluoroethyl)-4-piperidyl]oxy]phenyl]-6,8-diazaspiro[3.4]octan-6-yl]-3-(trifluoromethyl)pyridine-2-carbonitrile]	–	–	–	–

Further lines, the molecule ahead of its results:

SMILES	rGABA-gated Cl− channel % inh @10 μM (rGABA-gated Cl− channel) [%]	EC50 [1] [µM]	Emax [1, 5] [%]	IC50 [2, 6] [µM]	Emax [2, 7] [%]	EC50 [3] [µM]	Emax [3, 5] [%]	IC50 [4, 6] [µM]	Emax [4, 7] [%]	LNCaP-AR-wt AG MAX % Stim [1, 5] [%]	LNCaP-AR-wt ANT MAX % Inh [2, 7] [%]	LNCaP-AR-F876L AG MAX % Stim [3, 5] [%]	LNCaP-AR-F876L ANT MAX % Inh [4, 7] [%]	LNCaP-AR-wt AG pEC50 [1]	LNCaP-AR-wt ANT pIC50 [2, 6]	LNCaP-AR-F876L AG pEC50 [3]	LNCaP-AR-F876L ANT pIC50 [4, 6]
CN1CCC(Oc2ccc(N3C(=S)N(c4cnc(C#N)c(Cl)c4)C(=O)C34CCC4)cc2)CC1 [Cpd 24, 3-chloro-5-[8-[4-[(1-methyl-4-piperidyl)oxy]phenyl]-5-oxo-7-thioxo-6,8-diazaspiro[3.4]octan-6-yl]pyridine-2-carbonitrile]	25.4	> 15.1	0.6	0.17	101	> 15.1	0.5	0.0832	101	–	–	–	–	–	–	–	–
N#Cc1ncc(N2C(=O)C3(CCC3)N(c3ccc(O[C@H]4C[C@H]5CC[C@@H](C4)N5)cc3)C2=S)cc1C(F)(F)F [Cpd 29, 5-[8-[4-[[(1R,3r, 5S)-8-azabicyclo[3.2.1]octan-3-yl]oxy]phenyl]-5-oxo-7-thioxo-6,8-diazaspiro[3.4]octan-6-yl]-3-(trifluoromethyl)pyridine-2-carbonitrile]	39.9	–	1.5	–	91.5	–	3.4	–	101	–	–	–	–	<4.82	6.05	<4.82	6.40
CCOC(=O)N1CCN(C(=O)c2ccc(N3C(=S)N(c4cnc(C#N)c(C(F)(F)F)c4)C(=O)C34CCC4)cc2)CC1 [Cpd 31, ethyl 4-[4-[6-[6-cyano-5-(trifluoromethyl)-3-pyridyl]-5-oxo-7-thioxo-6,8-diazaspiro[3.4]octan-8-yl]benzoyl]piperazine-1-carboxylate]	79.0	> 15.1	0.3	1.29	80.3	> 15.1	0.1	0.617	87.1	–	–	–	–	–	–	–	–
COC(=O)CN1CCC(Oc2ccc(N3C(=S)N(c4cnc(C#N)c(C(F)(F)F)c4)C(=O)C34CCC4)cc2)CC1 [Cpd 33, methyl 2-[4-[4-[6-[6-cyano-5-(trifluoromethyl)-3-pyridyl]-5-oxo-7-thioxo-6,8-diazaspiro[3.4]octan-8-yl]phenoxy]-1-piperidyl]acetate]	99.2	> 15.1	0.2	0.708	98.9	> 15.1	2.8	0.389	98.2	–	–	–	–	–	–	–	–
CC(C)(C)CCN1CCC(Oc2ccc(N3C(=S)N(c4cnc(C#N)c(C(F)(F)F)c4)C(=O)C34CCC4)cc2)CC1 [Cpd 34, 5-(5-(4-((1-(3,3-dimethylbutyl)piperidin-4-yl)oxy)phenyl)-8-oxo-6-thioxo-5,7-diazaspiro[3.4]octan-7-yl)-3-(trifluoromethyl)picolinonitrile]	91.2	> 15.1	-0.4	3.31	82.7	> 15.1	0.2	1.26	89.7	–	–	–	–	–	–	–	–
Cc1cc(N2C(=O)C3(CCC3)N(c3ccc(OC4CCN(C5CC5)CC4)cc3)C2=S)cnc1C#N [Cpd 35, 5-[8-[4-[(1-cyclopropyl-4-piperidyl)oxy]phenyl]-5-oxo-7-thioxo-6,8-diazaspiro[3.4]octan-6-yl]-3-methyl-pyridine-2-carbonitrile]	49.9	> 15.1	0.2	0.912	100	> 15.1	0.3	0.372	99.5	–	–	–	–	–	–	–	–
COCCN1CCC(Oc2ccc(N3C(=S)N(c4cnc(C#N)c(C)c4)C(=O)C34CCC4)cc2)CC1 [Cpd 37, 5-[8-[4-[[1-(2-methoxyethyl)-4-piperidyl]oxy]phenyl]-5-oxo-7-thioxo-6,8-diazaspiro[3.4]octan-6-yl]-3-methyl-pyridine-2-carbonitrile]	18.8	> 15.1	0.1	1.26	99.8	> 15.1	0	0.407	99.5	–	–	–	–	–	–	–	–
N#CCN1CCC(Oc2ccc(N3C(=S)N(c4cnc(C#N)c(C(F)(F)F)c4)C(=O)C34CCC4)cc2)CC1 [Cpd 39, 5-[8-[4-[[1-(cyanomethyl)-4-piperidyl]oxy]phenyl]-5-oxo-7-thioxo-6,8-diazaspiro[3.4]octan-6-yl]-3-(trifluoromethyl)pyridine-2-carbonitrile]	86.2	> 15.1	0.9	0.676	100	> 15.1	-0.1	0.245	101	–	–	–	–	–	–	–	–
